Laboratory results published in US20200008426A1, “ACTIVE COMPOUND COMBINATIONS” (BAYER AKTIENGESELLSCHAFT, priority 2017, published 2020).

assay: LogP by HPLC on reversed phase columns (EEC directive 79/831 Annex V.A8); details: Table 1, formula (I); LC-UV, acidic range, 0.1% formic acid in water and acetonitrile
Description: Measurement of LogP values was performed according to EEC directive 79/831 Annex V.A8 by HPLC (High Performance Liquid Chromatography) on reversed phase columns with the following methods:
Lambda-max-values were determined using UV-spectra from 200 nm to 400 nm and the peak values of the chromatographic signals.

| SMILES | LogP [a] |
| --- | --- |
| CC(O)(Cn1cncn1)c1ccc(Oc2ccccc2)nc1Cl (stereo not drawn) [I.07] | 2.14 |
| OC(Cn1cncn1)c1cnc(Oc2ccc(C(F)(F)F)cc2)cc1Cl (stereo not drawn) [I.88] | 2.64^[a] |
| OC(Cn1cncn1)(c1ccc(Oc2ccc(C(F)F)cc2)nc1C(F)(F)F)C1CC1 (stereo not drawn) [I.93] | 3.13^[a] |
| CC(O)(Cn1cncn1)c1ccc(Oc2ccc(Cl)c(Cl)c2)nc1Cl (stereo not drawn) [I.32] | 3.09^[a] |
| CC(O)(Cn1cncn1)c1ccc(Oc2ccc(Cl)cc2)nc1F (stereo not drawn) [I.42] | 2.46^[a] |
| OC(Cn1cncn1)c1cnc(Oc2ccc(C(F)(F)F)cc2)cc1C(F)(F)F (single isomer, unassigned) [I.72] | 2.86^[a] |
| CC(O)(Cn1cncn1)c1cnc(Oc2ccc(C(F)F)cc2)cc1C(F)(F)F (stereo not drawn) [I.56] | 2.73^[a] |
| CC(O)(Cn1cncn1)c1cnc(Oc2ccc(Cl)cc2)cc1C(F)F (stereo not drawn) [I.64] | 2.68^[a] |
| CC(O)(Cn1cncn1)c1ccc(Oc2ccc(C(F)F)cc2)nc1Cl (stereo not drawn) [I.39] | 2.41^[a] |
| CC(O)(Cn1cncn1)c1ccc(Oc2ccc(F)cc2)nc1Cl (stereo not drawn) [I.27] | 2.28^[a] |
| OC(Cn1cncn1)c1cnc(Oc2ccc(Br)cc2)cc1C(F)(F)F (stereo not drawn) [I.48] | 2.75^[a] |
| CC(O)(Cn1cncn1)c1cnc(Oc2ccccc2)cc1Cl (stereo not drawn) [I.05] | 2.10 |
| OC(Cn1cncn1)c1ccc(Oc2ccc(OC(F)(F)F)cc2)nc1Cl (stereo not drawn) [I.12] | 2.73^[a] |
| CC(O)(Cn1cncn1)c1cnc(Oc2ccc(OC(F)(F)F)cc2)cc1C(F)(F)F (stereo not drawn) [I.44] | 3.23^[a] |
| CC(O)(Cn1cncn1)c1ccc(Oc2ccc(Cl)cc2F)nc1C(F)(F)F (stereo not drawn) [I.89] | 3.15^[a] |
| OC(Cn1cncn1)c1cnc(Oc2ccccc2)cc1Cl (stereo not drawn) [I.21] | 1.92^[a] |
| OC(Cn1cncn1)c1ccc(Oc2ccc(Cl)cc2F)nc1C(F)(F)F (stereo not drawn) [I.90] | 2.88^[a] |
| CC(O)(Cn1cncn1)c1ccc(Oc2ccc(Br)cc2)nc1C(F)(F)F (single isomer, unassigned) [I.102] | 2.94^[a] |
| OC(Cn1cncn1)c1ccc(Oc2ccc(OC(F)(F)F)cc2)nc1C(F)(F)F (stereo not drawn) [I.79] | 2.89^[a] |
| OC(Cn1cncn1)c1ccc(Oc2ccc(C(F)(F)F)cc2)nc1C(F)(F)F (stereo not drawn) [I.61] | 2.84^[a] |
| CC(O)(Cn1cncn1)c1ccc(Oc2ccc(Cl)cc2)nc1OC(F)(F)F (stereo not drawn) [I.33] | 3.29^[a] |
| CC(O)(Cn1cncn1)c1ncc(Oc2ccccc2)cc1Cl (stereo not drawn) [I.06] | 2.47 |
| CCCCC(O)(Cn1cncn1)c1ccc(Oc2ccc(Cl)cc2)nc1C(F)(F)F (racemic) [I.98] | 3.87^[a] |
| OC(Cn1cncn1)c1ccc(Oc2ccc(OC(F)(F)F)c(Cl)c2)nc1Cl (stereo not drawn) [I.11] | 3.11^[a] |

| SMILES | LogP [a] |
| --- | --- |
| OC(Cn1cncn1)c1ccc(Oc2ccccc2)nc1Cl (stereo not drawn) [I.13] | 1.98^[a] |
| CC(O)(Cn1cncn1)c1ccc(Oc2ccc(Cl)cc2)nc1C(F)(F)F (racemic) [I.96] | 2.68^[a] |
| CC(O)(Cn1cncn1)c1ccc(Oc2ccc(Cl)cc2)nc1C(F)(F)F (stereo not drawn) [I.67] | 2.68^[a] |
| OC(Cn1cncn1)c1ccc(Oc2ccc(S(F)(F)(F)(F)F)cc2)nc1C(F)(F)F (stereo not drawn) [I.60] | 3.08^[a] |
| OC(Cn1cncn1)c1ccc(Oc2ccc(Cl)cc2)nc1C(F)F (stereo not drawn) [I.25] | 2.44^[a] |
| CC(O)(Cn1cncn1)c1ccc(Oc2ccc(S(F)(F)(F)(F)F)cc2)nc1Cl (stereo not drawn) [I.35] | 3.17^[a] |
| CC(O)(Cn1cncn1)c1ccc(Oc2ccc(OC(F)(F)F)cc2)nc1C(F)(F)F (racemic) [I.95] | 2.98^[a] |
| OC(Cn1cncn1)c1cnc(Oc2ccc(C(F)(F)F)cc2)cc1C(F)(F)F (single isomer, unassigned) [I.92] | 2.86^[a] |
| CC(O)(Cn1cncn1)c1ccc(Oc2ccc(C(F)(F)F)cc2)nc1C(F)(F)F (stereo not drawn) [I.65] | 3.04^[a] |
| CC(O)(Cn1cncn1)c1cnc(Oc2ccc(C(F)(F)F)cc2)cc1Cl (stereo not drawn) [I.78] | 2.88^[a] |
| OC(Cn1cncn1)c1cnc(Oc2ccc(S(F)(F)(F)(F)F)cc2)cc1C(F)(F)F (racemic) [I.36] | 3.15^[a] |
| CCC(O)(Cn1cncn1)c1cnc(Oc2ccc(C(F)(F)F)cc2)cc1C(F)(F)F (stereo not drawn) [I.76] | 3.52^[a] |
| COc1ccc(Oc2ccc(C(C)(O)Cn3cncn3)c(Cl)n2)c(Cl)c1 (stereo not drawn) [I.31] | 2.56^[a] |
| CC(O)(Cn1cncn1)c1cnc(Oc2ccc(Cl)cc2)cc1Cl (single isomer, unassigned) [I.53] | 2.53^[a] |
| OC(Cn1cncn1)c1cnc(Oc2ccc(Cl)cc2)cc1C(F)F (stereo not drawn) [I.94] | 2.13^[a] |
| OC(Cn1cncn1)c1cnc(Oc2ccc(S(F)(F)(F)(F)F)cc2)cc1C(F)(F)F (single isomer, unassigned) [I.83] | 3.11^[a] |
| OC(Cn1cncn1)c1ccc(Oc2ccc(S(F)(F)(F)(F)F)cc2)nc1Cl (stereo not drawn) [I.34] | 2.90^[a] |
| CC(O)(Cn1cncn1)c1cnc(Oc2ccc(C(F)(F)F)cc2)cc1C(F)(F)F (stereo not drawn) [I.50] | 3.11^[a] |
| OC(Cn1cncn1)c1ccc(Oc2ccc(C(F)F)cc2)nc1Cl (stereo not drawn) [I.38] | 2.17^[a] |
| CC(C)c1ccc(Oc2ccc(C(C)(O)Cn3cncn3)c(C(F)(F)F)n2)cc1 (stereo not drawn) [I.75] | 3.35^[a] |
| CC(O)(Cn1cncn1)c1cnc(Oc2ccc(Cl)cc2)cc1Cl (racemic) [I.08] | 2.50^[a] |
| OC(Cn1cncn1)c1ccc(Oc2ccc(Br)cc2)nc1C(F)F (stereo not drawn) [I.73] | 2.50^[a] |
| OC(Cn1cncn1)c1ccc(Oc2ccccc2F)nc1Cl (stereo not drawn) [I.19] | 2.08^[a] |

same assay, conditions: Table 1, formula (I); LC-UV, neutral range, 0.001 molar ammonium acetate in water and acetonitrile

| LogP [b] | SMILES |
| --- | --- |
| 2.09 | CC(O)(Cn1cncn1)c1ccc(Oc2ccccc2)nc1Cl (stereo not drawn) [I.07] |
| 2.06 | CC(O)(Cn1cncn1)c1cnc(Oc2ccccc2)cc1Cl (stereo not drawn) [I.05] |
| 2.43 | CC(O)(Cn1cncn1)c1ncc(Oc2ccccc2)cc1Cl (stereo not drawn) [I.06] |

same assay, conditions: Table 2, formula (V); LC-UV, acidic range, 0.1% formic acid in water and acetonitrile

| SMILES | LogP [a] |
| --- | --- |
| CC(=O)c1ccc(Oc2ccc(Cl)cc2)nc1C(F)F [V.05] | 3.35^[a] |
| CC(=O)c1ccc(Oc2ccc(Br)cc2)nc1C(F)(F)F [V.20] | 3.85^[a] |
| CC(=O)c1cnc(Oc2ccc(OC(F)(F)F)cc2)cc1C(F)(F)F [V.15] | 4.20^[a] |
| CC(=O)c1ccc(Oc2ccc(Cl)c(Cl)c2)nc1Cl [V.11] | 4.10^[a] |
| CC(=O)c1ccc(Oc2ccc(C(F)F)cc2)nc1C(F)(F)F [V.32] | 3.26^[a] |
| CC(=O)c1cnc(Oc2ccc(Cl)cc2)cc1Cl [V.09] | 3.52 |
| CC(=O)c1ccc(Oc2ccc(Cl)cc2)nc1OC(F)(F)F [V.06] | 4.37^[a] |
| COc1ccc(Oc2ccc(C(C)=O)c(Cl)n2)c(Cl)c1 [V.29] | 3.44^[a] |
| CC(=O)c1cnc(Oc2ccccc2)cc1Cl [V.08] | 2.94 |
| CC(=O)c1ccc(Oc2c(F)cc(Cl)cc2F)nc1C(F)(F)F [V.31] | 4.06^[a] |
| O=C(c1ccc(Oc2ccc(S(F)(F)(F)(F)F)cc2)nc1C(F)(F)F)C1CC1 [V.43] | 4.67^[a] |
| O=C(c1ccc(Oc2ccc(C(F)(F)F)cc2)nc1C(F)(F)F)C1CC1 [V.39] | 4.37^[a] |
| CC(=O)c1cnc(Oc2ccc(Cl)cc2)cc1C(C)=O [V.19] | 3.11^[a] |
| O=Cc1ccc(Oc2ccc(C(=O)C3CC3)c(C(F)(F)F)n2)cc1 [V.42] | 3.21^[a] |
| CC(=O)c1cnc(Oc2ccc(C(F)(F)F)cc2)cc1C(F)(F)F [V.25] | 4.04^[a] |
| CC(=O)c1cnc(Oc2ccc(Br)cc2)cc1C(F)(F)F [V.27] | 3.99^[a] |

same assay, conditions: Table 2, formula (V); LC-UV, neutral range, 0.001 molar ammonium acetate in water and acetonitrile

| SMILES | LogP [b] |
| --- | --- |
| CC(=O)c1cnc(Oc2ccc(Cl)cc2)cc1Cl [V.09] | 3.42 |
| CC(=O)c1cnc(Oc2ccccc2)cc1Cl [V.08] | 2.86 |

same assay, conditions: Table 5, formula (IX); LC-UV, acidic range, 0.1% formic acid in water and acetonitrile

| SMILES | LogP [a] |
| --- | --- |
| FC(F)(F)c1nc(Oc2ccc(S(F)(F)(F)(F)F)cc2)ccc1C1(C2CC2)CO1 (stereo not drawn) [IX.09] | 5.22^[a] |
